ChEMBL document CHEMBL3046630, “Isolation and antifungal and antioomycete activities of staurosporine from Streptomyces roseoflavus strain LS-A24” (J Agric Food Chem, 2006)
The source made the active and inactive calls. No cut-off for these calls is given here.

Experiments:
Phytophthora capsici [1] = assay: Antioomycete activity against Phytophthora capsici zoospores suspension infected in pepper plants (cv. Hanbyul) at first branch stage pre-exposed to compound spray on stems before fungal infection assessed as reduction in Phyophthora blight disease severity at 1 to 1000 ug/mL under greenhouse conditions; format: functional, organism-based
Phytophthora capsici [2] = assay: Antioomycete activity against Phytophthora capsici zoospores suspension infected in pepper plants (cv. Hanbyul) at first branch stage pre-exposed to compound spray on stems before fungal infection assessed as reduction in Phyophthora blight disease severity at 100 ug/mL under greenhouse conditions; format: functional, organism-based
Capsicum annuum = assay: Phytotoxicity in Phytophthora capsici zoospores suspension infected Capsicum annuum cv. Hanbyul (pepper) at first branch stage pre-exposed to compound spray on stems before fungal infection at 500 ug/mL under greenhouse conditions; format: organism-based; conditions: in vivo, other
Phytophthora capsici [3] = assay: Antioomycete activity against Phytophthora capsici zoospores suspension infected in pepper plants (cv. Hanbyul) at first branch stage pre-exposed to compound spray on stems before fungal infection assessed as reduction in Phyophthora blight disease severity at 500 ug/mL under greenhouse conditions; format: functional, organism-based

## COCC(=O)N(c1c(C)cccc1C)C(C)C(=O)OC (stereo not given)
Phytophthora capsici [1]
  Activity: Dose-dependent effect
Phytophthora capsici [2]
  Activity: Active

## CN[C@@H]1C[C@H]2O[C@@](C)([C@@H]1OC)n1c3ccccc3c3c4c(c5c6ccccc6n2c5c31)C(=O)NC4 [STAUROSPORINE]
Phytophthora capsici [1]
  Activity: Dose-dependent effect
Capsicum annuum
  Activity: Non-toxic
Phytophthora capsici [3]
  Activity: Active
